Measurements as given in patent US8686143B2, “Compounds useful as inhibitors of Janus kinases” (Vertex Pharmaceuticals Incorporated, priority 2007, dated 2014).

Target: T1, JAK3 (Homo sapiens, UniProt P52333)
T1 sequence (P52333 1-1124): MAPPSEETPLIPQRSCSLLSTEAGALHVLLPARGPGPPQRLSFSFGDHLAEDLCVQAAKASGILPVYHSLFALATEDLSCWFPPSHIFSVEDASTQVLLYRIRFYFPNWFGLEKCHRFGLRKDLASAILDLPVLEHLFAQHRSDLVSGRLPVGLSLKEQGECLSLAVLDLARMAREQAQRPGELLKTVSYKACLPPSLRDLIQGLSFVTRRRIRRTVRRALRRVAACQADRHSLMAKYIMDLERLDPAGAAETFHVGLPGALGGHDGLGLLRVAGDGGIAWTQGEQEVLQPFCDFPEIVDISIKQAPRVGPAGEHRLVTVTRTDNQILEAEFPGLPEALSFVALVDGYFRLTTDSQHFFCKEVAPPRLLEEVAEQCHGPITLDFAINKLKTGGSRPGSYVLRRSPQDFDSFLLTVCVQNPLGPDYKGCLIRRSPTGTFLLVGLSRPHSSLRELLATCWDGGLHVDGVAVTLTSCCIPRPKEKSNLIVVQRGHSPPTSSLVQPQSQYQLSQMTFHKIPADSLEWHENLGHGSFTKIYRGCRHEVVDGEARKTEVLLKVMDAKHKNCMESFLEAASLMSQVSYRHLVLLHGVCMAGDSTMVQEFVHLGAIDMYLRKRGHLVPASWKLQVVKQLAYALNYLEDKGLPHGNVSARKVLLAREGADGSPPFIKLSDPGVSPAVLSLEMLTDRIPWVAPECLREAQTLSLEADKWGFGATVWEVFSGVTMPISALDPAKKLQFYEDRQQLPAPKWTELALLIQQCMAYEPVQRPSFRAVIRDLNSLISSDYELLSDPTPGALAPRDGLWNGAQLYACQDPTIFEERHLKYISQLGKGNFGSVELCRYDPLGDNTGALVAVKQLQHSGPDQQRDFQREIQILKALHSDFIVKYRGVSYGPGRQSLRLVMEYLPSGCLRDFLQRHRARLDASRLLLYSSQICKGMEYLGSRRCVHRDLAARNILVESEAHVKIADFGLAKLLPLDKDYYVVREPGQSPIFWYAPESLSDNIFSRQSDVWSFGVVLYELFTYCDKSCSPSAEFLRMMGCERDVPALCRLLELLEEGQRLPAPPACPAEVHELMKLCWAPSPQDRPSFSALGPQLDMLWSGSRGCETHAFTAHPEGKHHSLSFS
Assay: JAK3 Inhibition Assay (33P incorporation into poly(Glu)4Tyr)
Type: biochemical
Conditions: 1 nM JAK3, 5 μM ATP, 1 μM poly(Glu)4Tyr, 25° C.
How it was run: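 Run at 25°C for 20 min with 1 nM enzyme in pH 7.4 HEPES buffer with MgCl2, DTT, NaCl and BSA. Final substrates were 5 μM ATP (33P-labelled) and 1 μM poly(Glu)4Tyr. Stopped with TCA, filtered, and 33P incorporation counted by scintillation.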

Ki: 10 to 50 µM
SMILES: O=C(NCc1ccccc1)c1cc(-c2ncc(F)c(N3CCC[C@@H]3C(=O)NCC(F)(F)F)n2)c[nH]1 [Compound 116]
